Results published in ChEMBL document CHEMBL1138922, “Nepsilon-thioacetyl-lysine: a multi-facet functional probe for enzymatic protein lysine Nepsilon-deacetylation” (Bioorg Med Chem Lett, 2006).
Values belong to the compound of their own block, whether it stands above or below them. Calls of active or inactive are those of the source. No cut-off for these calls is given here.

How the values were obtained:
[1] = biological target: T1, NAD-dependent protein deacetylase sirtuin-1 (Homo sapiens) (UniProt Q96EB6); assay: Inhibition of human SIRT1 at 2 mM
T1 sequence (whole entry): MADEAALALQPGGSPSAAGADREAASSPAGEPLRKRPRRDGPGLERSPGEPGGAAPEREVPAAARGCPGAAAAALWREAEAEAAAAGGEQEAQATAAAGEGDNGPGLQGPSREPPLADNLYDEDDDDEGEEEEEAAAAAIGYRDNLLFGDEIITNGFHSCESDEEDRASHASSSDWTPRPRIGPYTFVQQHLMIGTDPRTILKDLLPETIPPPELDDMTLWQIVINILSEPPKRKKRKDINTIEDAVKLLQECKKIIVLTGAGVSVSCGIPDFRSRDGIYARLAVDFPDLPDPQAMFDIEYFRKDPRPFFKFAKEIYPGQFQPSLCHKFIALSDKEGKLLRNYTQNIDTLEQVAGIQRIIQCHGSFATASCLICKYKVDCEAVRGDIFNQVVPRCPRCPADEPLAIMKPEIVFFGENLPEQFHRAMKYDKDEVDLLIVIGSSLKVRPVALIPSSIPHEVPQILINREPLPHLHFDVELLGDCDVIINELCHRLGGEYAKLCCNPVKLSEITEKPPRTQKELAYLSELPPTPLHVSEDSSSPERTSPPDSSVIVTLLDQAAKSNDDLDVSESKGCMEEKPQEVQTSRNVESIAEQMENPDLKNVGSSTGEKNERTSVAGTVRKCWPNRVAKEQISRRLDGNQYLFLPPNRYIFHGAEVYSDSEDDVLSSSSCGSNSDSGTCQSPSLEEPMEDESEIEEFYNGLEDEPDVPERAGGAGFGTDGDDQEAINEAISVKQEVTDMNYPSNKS

[2] = biological target: T2, NAD-dependent protein deacetylase sirtuin-1 (Homo sapiens, UniProt Q96EB6); assay: (§1) Inhibition of human SIRT1
T2 sequence (Q96EB6 whole entry): T1 sequence (whole entry)

[3] = biological target: T1, NAD-dependent protein deacetylase sirtuin-1 (Homo sapiens); assay: as §1

Activity [1]: inactive
Structure (SMILES): CC(=O)N[C@@H](CCCC/N=C(/C)S)C(=O)O

IC50 [2]: 2 µM
Structure (SMILES): CSCC[C@H](NC(=O)[C@H](CC(C)C)NC(=O)[C@H](CCCC/N=C(/C)S)NC(=O)[C@H](CCCCN)NC(=O)[C@H](Cc1c[nH]cn1)NC(=O)[C@H](CCCN=C(N)N)NC(=O)[C@H](CO)NC(=O)[C@@H](NC(=O)[C@H](CO)NC(=O)[C@H](CCC(N)=O)NC(=O)CNC(=O)[C@H](CCCCN)NC(=O)[C@@H](N)CCCCN)[C@@H](C)O)C(=O)N[C@@H](Cc1ccccc1)C(=O)N[C@@H](CCCCN)C(=O)N[C@H](C(=O)N[C@@H](CCC(=O)O)C(=O)NCC(=O)O)[C@@H](C)O

IC25 [3]: 2000 µM
Structure (SMILES): C/C(S)=N/CCCC[C@H](NC(=O)OCC1c2ccccc2-c2ccccc21)C(=O)O
